Measurements reported in US10881653B2, “Tricyclic compounds and their use in the treatment of cancer” (The United States of America, as represented by the …, priority 2015, dated 2021).
Where a name gives a salt, the structure may show the parent alone. Read-outs that look alike come from different tables or passages of the source.

Experiments:
[1] = molecular target: T1, recombinant thioredoxin reductase 1 (TrxR1) (Homo sapiens, UniProt Q16881); experiment: Inhibition of recombinant TrxR1 (DTNB assay); type: biochemical
T1 sequence (Q16881 1-649): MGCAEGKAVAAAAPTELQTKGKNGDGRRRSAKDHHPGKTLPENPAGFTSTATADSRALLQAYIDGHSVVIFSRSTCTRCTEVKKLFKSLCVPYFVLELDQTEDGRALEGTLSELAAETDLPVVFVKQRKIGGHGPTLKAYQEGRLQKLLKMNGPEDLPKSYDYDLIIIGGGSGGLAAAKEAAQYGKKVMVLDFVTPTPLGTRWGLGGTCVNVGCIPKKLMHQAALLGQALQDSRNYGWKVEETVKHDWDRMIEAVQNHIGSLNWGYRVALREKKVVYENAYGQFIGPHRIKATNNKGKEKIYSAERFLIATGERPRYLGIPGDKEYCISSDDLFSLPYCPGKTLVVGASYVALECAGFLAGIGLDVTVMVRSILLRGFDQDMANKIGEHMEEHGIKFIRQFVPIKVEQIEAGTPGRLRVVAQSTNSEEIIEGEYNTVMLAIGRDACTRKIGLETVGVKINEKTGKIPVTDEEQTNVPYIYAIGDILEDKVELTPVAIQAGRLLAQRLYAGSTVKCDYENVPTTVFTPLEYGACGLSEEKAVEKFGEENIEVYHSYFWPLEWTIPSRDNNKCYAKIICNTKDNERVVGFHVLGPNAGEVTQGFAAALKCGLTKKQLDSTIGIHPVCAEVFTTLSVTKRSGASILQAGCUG
Description: (§1) Small molecule inhibition of recombinant thioredoxin reductase 1 (TrxR1) and gluthathione reductase (GR) was examined in 96-well plate format. 15 nM TrxR1 was incubated in the presence of 250 μM NADPH, 0.1 mg/ml BSA, and various concentrations of the compound of Example 1 (1% DMSO final) in 50 mM Tris (pH 7.5) and 2 mM EDTA buffer for 15 minutes. Following the incubation period, 2.5 mM DTNB was added to each well and the change in O.D. at 412 nm was followed. Percent activity was determined using DMSO vehicle and no TrxR1 (blank) controls. 2 nM GR was incubated in the presence of 250 μM NADPH, 0.1 mg/ml BSA, and various concentrations of compounds (1% DMSO final) in 50 mM Tris (pH 7.5) and 2 mM EDTA buffer for 15 minutes. Following the incubation period, 1 mM GSSG was added to each well and the change in O.D. at 340 nm was followed. Percent activity was determined using DMSO vehicle and no GR (blank) controls.

[2] = molecular target: T2, gluthathione reductase (GR) (Homo sapiens, UniProt P00390); experiment: Inhibition of recombinant GR (GSSG assay); type: biochemical
T2 sequence (P00390 44-522): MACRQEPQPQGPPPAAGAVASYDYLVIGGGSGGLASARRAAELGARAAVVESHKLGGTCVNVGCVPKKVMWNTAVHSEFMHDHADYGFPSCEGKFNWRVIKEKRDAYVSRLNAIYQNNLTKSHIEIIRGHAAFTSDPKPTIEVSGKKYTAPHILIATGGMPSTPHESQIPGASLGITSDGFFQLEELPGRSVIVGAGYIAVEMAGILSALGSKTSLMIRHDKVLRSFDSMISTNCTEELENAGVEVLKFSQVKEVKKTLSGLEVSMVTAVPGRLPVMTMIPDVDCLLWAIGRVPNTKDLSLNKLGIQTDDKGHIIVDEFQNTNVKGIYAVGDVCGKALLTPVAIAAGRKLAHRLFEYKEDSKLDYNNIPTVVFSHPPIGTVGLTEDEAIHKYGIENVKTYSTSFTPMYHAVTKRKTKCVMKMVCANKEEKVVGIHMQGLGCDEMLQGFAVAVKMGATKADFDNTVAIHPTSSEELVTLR
Description: as §1

[3] = Biological Example 4, assays of Biological Example 1, read-out: TrxR Inhibition
[4] = Biological Example 4, assays of Biological Example 1
[5] = Biological Example 1, 15 nM TrxR1, 250 μM NADPH, 15 minutes incubation, read-out: TrxR inhibition
[6] = Biological Example 1, 2 nM GR, 250 μM NADPH, 15 minutes incubation

SMILES | IC50 [1, 3] [µM] | IC50 [2, 4] [µM] | IC50 [1, 5] [µM] | IC50 [2, 6] [µM]
O=C1C=C[C@H]2[C@@H]3C(=O)N(c4ccccc4)C(=O)[C@@H]3[C@@H]1N2Cc1ccccc1Cl (relative stereo) [Example 24, exo-11-(2-Chlorobenzyl)-4-phenyl-4,11-diazatricyclo[5.3.1.0^2,6]undec-9-ene-3,5,8-trione Trifluoroacetate] | 1.3 | > 100 |  | 
O=C1C=C[C@H]2[C@@H]3C(=O)N(c4ccccc4)C(=O)[C@@H]3[C@@H]1N2CC1CC1 (relative stereo) [Example 25, exo-11-(Cyclopropylmethyl)-4-phenyl-4,11-diazatricyclo[5.3.1.0^2,6]undec-9-ene-3,5,8-trione Trifluoroacetate] | 7.06 | > 100 |  | 
O=C1C=C[C@H]2[C@@H]3C(=O)N(c4ccccc4)C(=O)[C@@H]3[C@@H]1N2Cc1cc(F)ccc1F (relative stereo) [Example 27, exo-11-(2,5-Difluorobenzyl)-4-phenyl-4,11-diazatricyclo[5.3.1.0^2,6]undec-9-ene-3,5,8-trione Trifluoroacetate] | 1.34 | > 100 |  | 
O=C1C=C[C@H]2[C@@H]3C(=O)N(c4ccccc4)C(=O)[C@@H]3[C@@H]1N2Cc1cccc(F)c1 (relative stereo) [Example 29, exo-11-(3-Fluorobenzyl)-4-phenyl-4,11-diazatricyclo[5.3.1.0^2,6]undec-9-ene-3,5,8-trione Trifluoroacetate] | 1.07 | > 100 |  | 
COC(=O)c1cccc(CN2[C@@H]3C(=O)C=C[C@H]2[C@H]2C(=O)N(c4ccccc4)C(=O)[C@H]23)c1 (relative stereo) [Example 45, endo-Methyl 3-((3,5,10-trioxo-4-phenyl-4,11-diazatricyclo[5.3.1.0^2,6]undec-8-en-11-yl)methyl)benzoate] | 1.4 | > 100 |  | 
CCN1C(=O)C2C(C1=O)[C@@H]1C=CC(=O)[C@H]2N1Cc1ccccc1 (relative stereo) [Example 46, endo-11-Benzyl-4-ethyl-4,11-diazatricyclo[5.3.1.0^2,6]undec-9-ene-3,5,8-trione Trifluoroacetate] | 5.1 | > 100 |  | 
CCN1C(=O)[C@@H]2[C@H](C1=O)[C@H]1C(=O)C=C[C@@H]2N1Cc1ccccc1 (relative stereo) [Example 47, exo-11-Benzyl-4-ethyl-4,11-diazatricyclo[5.3.1.0^2,6]undec-9-ene-3,5,8-trione Trifluoroacetate] | 4.15 | > 100 |  | 
CCN1C(=O)[C@@H]2[C@H](C1=O)[C@H]1C(=O)C=C[C@@H]2N1Cc1cccc(C)c1 (relative stereo) [Example 49, exo-4-Ethyl-11-(3-methylbenzyl)-4,11-diazatricyclo[5.3.1.0^2,6]undec-9-ene-3,5,8-trione Trifluoroacetate] | 2.53 | > 100 |  | 
CN1C(=O)[C@@H]2[C@H](C1=O)[C@H]1C(=O)C=C[C@@H]2N1Cc1ccccc1 (relative stereo) [Example 51, exo-11-Benzyl-4-methyl-4,11-diazatricyclo[5.3.1.0^2,6]undec-9-ene-3,5,8-trione Trifluoroacetate] | 4.61 | > 100 |  | 
Cc1cccc(CN2[C@@H]3C(=O)C=C[C@H]2[C@@H]2C(=O)N(C)C(=O)[C@@H]23)c1 (relative stereo) [Example 53, exo-4-Methyl-11-(3-methylbenzyl)-4,11-diazatricyclo[5.3.1.0^2,6]undec-9-ene-3,5,8-trione Trifluoroacetate] | 3.26 | > 100 |  | 
O=C1C=C[C@H]2[C@@H]3C(=O)N(c4ccc(O)cc4)C(=O)[C@@H]3[C@@H]1N2Cc1ccccc1 (relative stereo) [Example 54, exo-11-Benzyl-4-(4-hydroxyphenyl)-4,11-diazatricyclo[5.3.1.0^2,6]undec-9-ene-3,5,8-trione Trifluoroacetate] | 1.8 | > 100 |  | 
Cc1cccc(CN2[C@@H]3C(=O)C=C[C@H]2[C@@H]2C(=O)N(c4ccc(O)cc4)C(=O)[C@@H]23)c1 (relative stereo) [Example 55, exo-4-(4-Hydroxyphenyl)-11-(3-methylbenzyl)-4,11-diazatricyclo[5.3.1.0^2,6]-undec-9-ene-3,5,8-trione Trifluoroacetate] | 1.64 | > 100 |  | 
Cc1cccc(CN2[C@@H]3C(=O)C=C[C@H]2[C@@H]2C(=O)N(c4ccccc4O)C(=O)[C@@H]23)c1 (relative stereo) [Example 56, exo-4-(2-Hydroxyphenyl)-11-(3-methylbenzyl)-4,11-diazatricyclo[5.3.1.0^2,6]-undec-9-ene-3,5,8-trione Trifluoroacetate] | 1.44 | > 100 |  | 
Cc1cccc(CN2[C@@H]3C(=O)C=C[C@H]2[C@@H]2C(=O)N(c4cccc(O)c4)C(=O)[C@@H]23)c1 (relative stereo) [Example 58, exo-4-(3-Hydroxyphenyl)-11-(3-methylbenzyl)-4,11-diazatricyclo[5.3.1.0^2,6]undec-9-ene-3,5,8-trione Trifluoroacetate] | 1.3 | > 100 | 0.75 | > 100
CCc1ccc(N2C(=O)[C@@H]3[C@H](C2=O)[C@H]2C(=O)C=C[C@@H]3N2Cc2cccc(C)c2)cc1 (relative stereo) [Example 59, exo-4-(4-Ethylphenyl)-11-(3-methylbenzyl)-4,11-diazatricyclo[5.3.1.0^2,6]-undec-9-ene-3,5,8-trione Trifluoroacetate] | 1.63 | > 100 |  | 
CCN1C(=O)[C@@H]2[C@H](C1=O)[C@H]1C(=O)C=C[C@@H]2N1C (relative stereo) [Example 61, exo-4-Ethyl-11-methyl-4,11-diazatricyclo[5.3.1.0^2,6]undec-9-ene-3,5,8-trione Trifluoroacetate] | 23.4 | > 100 |  | 
Cc1cccc(CN2[C@@H]3C(=O)C=C[C@H]2[C@@H]2C(=O)N(c4cccc(Br)c4)C(=O)[C@@H]23)c1 (relative stereo) [Example 62, exo-4-(3-Bromophenyl)-11-(3-methylbenzyl)-4,11-diazatricyclo[5.3.1.0^2,6]-undec-9-ene-3,5,8-trione Trifluoroacetate] | 1.23 | > 100 |  | 
Cc1cccc(CN2[C@@H]3C(=O)C=C[C@H]2[C@@H]2C(=O)N(c4cccc(N5CCCCC5)c4)C(=O)[C@@H]23)c1 (relative stereo) [Example 63, exo-11-(3-Methylbenzyl)-4-(3-(piperidin-1-yl)phenyl)-4,11-diazatricyclo-[5.3.1.0^2,6]undec-9-ene-3,5,8-trione Trifluoroacetate] | 1.58 | > 100 |  | 
Cc1cccc(CN2[C@@H]3C(=O)C=C[C@H]2[C@@H]2C(=O)N(c4c(C)cccc4C)C(=O)[C@@H]23)c1 (relative stereo) [Example 65, exo 4-(2,6-Dimethylphenyl)-11-(3-methylbenzyl)-4,11-diazatricyclo-[5.3.1.0^2,6]undec-9-ene-3,5,8-trione Trifluoroacetate] | 5.3 | > 100 | 4.52 | > 100
Cc1cccc(CN2[C@@H]3C(=O)C=C[C@H]2[C@@H]2C(=O)N(c4ccc(Br)cc4)C(=O)[C@@H]23)c1 (relative stereo) [Example 66, exo-4-(4-Bromophenyl)-11-(3-methylbenzyl)-4,11-diazatricyclo[5.3.1.0^2,6]-undec-9-ene-3,5,8-trione Trifluoroacetate] | 1.43 | > 100 |  | 
